From US10927123B2, “Modulators of the beta-3 adrenergic receptor useful for the treatment or prevention of disorders related thereto” (Arena Pharmaceuticals, Inc., priority 2016, dated 2021)

What follows are molecules tested against Beta-3 Adrenergic Receptor (Homo sapiens (Human), UniProt P13945) (assay: HTRF cAMP antagonist assay (IC50 determination)). Settings: CHO-K1 cells stably expressing recombinant receptor; antagonism of isoproterenol at EC90; cAMP readout.
Assay type: cell-based
Method in brief: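 CHO-K1 cells stably expressing receptor, 1500 cells/well, preincubated briefly with 10-point 5-fold compound series (top final typically 10 or 100 μM) in PBS with 1 mM IBMX, then challenged with isoproterenol at EC90 for 1 h at room temperature. cAMP read by HTRF against on-plate standard curve; IC50 from dose-response.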

Beta-3 Adrenergic Receptor, sequence (P13945 whole entry, species assumed): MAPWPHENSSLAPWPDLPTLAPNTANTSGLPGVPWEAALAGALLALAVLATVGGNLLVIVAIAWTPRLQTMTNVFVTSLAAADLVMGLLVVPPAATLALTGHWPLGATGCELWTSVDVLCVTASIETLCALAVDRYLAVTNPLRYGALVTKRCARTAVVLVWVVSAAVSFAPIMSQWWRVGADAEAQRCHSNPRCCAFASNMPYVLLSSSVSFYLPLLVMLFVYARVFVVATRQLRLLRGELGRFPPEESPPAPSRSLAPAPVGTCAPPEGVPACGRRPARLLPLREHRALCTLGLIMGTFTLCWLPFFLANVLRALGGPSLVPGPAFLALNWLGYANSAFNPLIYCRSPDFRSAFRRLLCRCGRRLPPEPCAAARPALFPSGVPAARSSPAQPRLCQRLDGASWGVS

Compound	IC50
CCCS(=O)(=O)c1cccc(OC[C@@H](O)CN[C@H]2COC3(CCN(S(=O)(=O)c4ccc5ncccc5c4)CC3)C2)c1 [Compound 115, (S)-1-(3-(propylsulfonyl)phenoxy)-3-((R)-8-(quinolin-6-ylsulfonyl)-1-oxa-8-azaspiro[4.5]decan-3-ylamino)propan-2-ol]	120 nM
O=S(=O)(CC1CC1)c1cccc(OC[C@@H](O)CN[C@H]2COC3(CCN(S(=O)(=O)c4ccc5ncccc5c4)CC3)C2)c1 [Compound 117, (S)-1-(3-(cyclopropylmethylsulfonyl)phenoxy)-3-((R)-8-(quinolin-6-ylsulfonyl)-1-oxa-8-azaspiro[4.5]decan-3-ylamino)propan-2-ol]	172 nM
CS(=O)(=O)c1cccc(OC[C@@H](O)CN[C@H]2COC3(CCN(S(=O)(=O)c4cnc5ccccc5c4)CC3)C2)c1 [Compound 118, (S)-1-(3-(methylsulfonyl)phenoxy)-3-((R)-8-(quinolin-3-ylsulfonyl)-1-oxa-8-azaspiro[4.5]decan-3-ylamino)propan-2-ol]	10.4 nM
CC(C)S(=O)(=O)c1cccc(OC[C@@H](O)CN[C@H]2COC3(CCN(S(=O)(=O)c4cnc5ccccc5c4)CC3)C2)c1 [Compound 119, (S)-1-(3-(isopropylsulfonyl)phenoxy)-3-((R)-8-(quinolin-3-ylsulfonyl)-1-oxa-8-azaspiro[4.5]decan-3-ylamino)propan-2-ol]	11.6 nM
O=S(=O)(CCCO)c1cccc(OC[C@@H](O)CN[C@H]2COC3(CCN(S(=O)(=O)c4ccc5ncccc5c4)CC3)C2)c1 [Compound 121, 3-(3-((S)-2-hydroxy-3-((R)-8-(quinolin-6-ylsulfonyl)-1-oxa-8-azaspiro[4.5]decan-3-ylamino)propoxy)phenylsulfonyl)propan-1-ol]	562 nM
CCS(=O)(=O)c1cccc(OC[C@@H](O)CN[C@H]2COC3(CCN(S(=O)(=O)c4cnc5ccccc5c4)CC3)C2)c1 [Compound 122, (S)-1-(3-(ethylsulfonyl)phenoxy)-3-((R)-8-(quinolin-3-ylsulfonyl)-1-oxa-8-azaspiro[4.5]decan-3-ylamino)propan-2-ol]	7.81 nM
CC(C)CS(=O)(=O)c1cccc(OC[C@@H](O)CN[C@H]2COC3(CCN(S(=O)(=O)c4cnc5ccccc5c4)CC3)C2)c1 [Compound 124, (S)-1-(3-(isobutylsulfonyl)phenoxy)-3-((R)-8-(quinolin-3-ylsulfonyl)-1-oxa-8-azaspiro[4.5]decan-3-ylamino)propan-2-ol]	78.2 nM
O=S(=O)(CCO)c1cccc(OC[C@@H](O)CN[C@H]2COC3(CCN(S(=O)(=O)c4cccc(-c5cccc(C(F)(F)F)n5)c4)CC3)C2)c1 [Compound 125, (S)-1-(3-(2-hydroxyethylsulfonyl)phenoxy)-3-((R)-8-(3-(6-(trifluoromethyl)pyridin-2-yl)phenylsulfonyl)-1-oxa-8-azaspiro[4.5]decan-3-ylamino)propan-2-ol]	48.8 nM
O=S(=O)(CCO)c1cccc(OC[C@@H](O)CN[C@H]2COC3(CCN(S(=O)(=O)c4cccc(-c5ncccc5F)c4)CC3)C2)c1 [Compound 126, (S)-1-((R)-8-(3-(3-fluoropyridin-2-yl)phenylsulfonyl)-1-oxa-8-azaspiro[4.5]decan-3-ylamino)-3-(3-(2-hydroxyethylsulfonyl)phenoxy)propan-2-ol]	126 nM
Cc1cccc(-c2cccc(S(=O)(=O)N3CCC4(CC3)C[C@@H](NC[C@H](O)COc3cccc(S(=O)(=O)CCO)c3)CO4)c2)n1 [Compound 128, (S)-1-(3-(2-hydroxyethylsulfonyl)phenoxy)-3-((R)-8-(3-(6-methylpyridin-2-yl)phenylsulfonyl)-1-oxa-8-azaspiro[4.5]decan-3-ylamino)propan-2-ol]	108 nM
Cc1ccnc(-c2cccc(S(=O)(=O)N3CCC4(CC3)C[C@@H](NC[C@H](O)COc3cccc(S(=O)(=O)CCO)c3)CO4)c2)c1 [Compound 129, (S)-1-(3-(2-hydroxyethylsulfonyl)phenoxy)-3-((R)-8-(3-(4-methylpyridin-2-yl)phenylsulfonyl)-1-oxa-8-azaspiro[4.5]decan-3-ylamino)propan-2-ol]	485 nM
COCCCS(=O)(=O)c1cccc(OC[C@@H](O)CN[C@H]2COC3(CCN(S(=O)(=O)c4ccc5ncccc5c4)CC3)C2)c1 [Compound 132, (S)-1-(3-(3-methoxypropylsulfonyl)phenoxy)-3-((R)-8-(quinolin-6-ylsulfonyl)-1-oxa-8-azaspiro[4.5]decan-3-ylamino)propan-2-ol]	739 nM
NC(=O)CCS(=O)(=O)c1cccc(OC[C@@H](O)CN[C@H]2COC3(CCN(S(=O)(=O)c4ccc5ncccc5c4)CC3)C2)c1 [Compound 133, 3-(3-((S)-2-hydroxy-3-((R)-8-(quinolin-6-ylsulfonyl)-1-oxa-8-azaspiro[4.5]decan-3-ylamino)propoxy)phenylsulfonyl)propanamide]	443 nM
O=S(=O)(c1cnc2ccccc2c1)N1CCC2(CC1)C[C@@H](NC[C@H](O)COc1cccc(S(=O)(=O)C3(CO)CC3)c1)CO2 [Compound 136, (S)-1-(3-(1-(hydroxymethyl)cyclopropylsulfonyl)phenoxy)-3-((R)-8-(quinolin-3-ylsulfonyl)-1-oxa-8-azaspiro[4.5]decan-3-ylamino)propan-2-ol]	18.8 nM
NC(=O)CS(=O)(=O)c1cccc(OC[C@@H](O)CN[C@H]2COC3(CCN(S(=O)(=O)c4ccc5ncccc5c4)CC3)C2)c1 [Compound 137, 2-(3-((S)-2-hydroxy-3-((R)-8-(quinolin-6-ylsulfonyl)-1-oxa-8-azaspiro[4.5]decan-3-ylamino)propoxy)phenylsulfonyl)acetamide]	350 nM
O=S(=O)(CC1CC1)c1cccc(OC[C@@H](O)CN[C@H]2COC3(CCN(S(=O)(=O)c4cnc5ccccc5c4)CC3)C2)c1 [Compound 140, (S)-1-(3-(cyclopropylmethylsulfonyl)phenoxy)-3-((R)-8-(quinolin-3-ylsulfonyl)-1-oxa-8-azaspiro[4.5]decan-3-ylamino)propan-2-ol]	45.9 nM

More lines, now with the values ahead:

IC50	Compound
26.8 nM	CC(C)S(=O)(=O)c1cccc(OC[C@@H](O)CN[C@H]2COC3(CCN(S(=O)(=O)c4ccc5ncccc5c4)CC3)C2)c1 [Compound 113, (S)-1-(3-(isopropylsulfonyl)phenoxy)-3-((R)-8-(quinolin-6-ylsulfonyl)-1-oxa-8-azaspiro[4.5]decan-3-ylamino)propan-2-ol]
52 nM	O=S(=O)(c1cccc(OC[C@@H](O)CN[C@H]2COC3(CCN(S(=O)(=O)c4ccc5ncccc5c4)CC3)C2)c1)C1CCC1 [Compound 114, (S)-1-(3-(cyclobutylsulfonyl)phenoxy)-3-((R)-8-(quinolin-6-ylsulfonyl)-1-oxa-8-azaspiro[4.5]decan-3-ylamino)propan-2-ol]
320 nM	CC(C)CS(=O)(=O)c1cccc(OC[C@@H](O)CN[C@H]2COC3(CCN(S(=O)(=O)c4ccc5ncccc5c4)CC3)C2)c1 [Compound 116, (S)-1-(3-(isobutylsulfonyl)phenoxy)-3-((R)-8-(quinolin-6-ylsulfonyl)-1-oxa-8-azaspiro[4.5]decan-3-ylamino)propan-2-ol]
177 nM	Cc1cccc(-c2cccc(S(=O)(=O)N3CCC4(CC3)C[C@H](NC[C@H](O)COc3cccc(S(=O)(=O)CCO)c3)CO4)c2)n1 [Compound 120, (5)-1-(3-(2-hydroxyethylsulfonyl)phenoxy)-3-((S)-8-(3-(6-methylpyridin-2-yl)phenylsulfonyl)-1-oxa-8-azaspiro[4.5]decan-3-ylamino)propan-2-ol]
157 nM	Cc1ccc(-c2cccc(S(=O)(=O)N3CCC4(CC3)C[C@@H](NC[C@H](O)COc3cccc(S(=O)(=O)CCO)c3)CO4)c2)nc1 [Compound 127, (S)-1-(3-(2-hydroxyethylsulfonyl)phenoxy)-3-((R)-8-(3-(5-methylpyridin-2-yl)phenylsulfonyl)-1-oxa-8-azaspiro[4.5]decan-3-ylamino)propan-2-ol]
12 nM	O=S(=O)(c1cnc2ccccc2c1)N1CCC2(CC1)C[C@@H](NC[C@H](O)COc1cccc(S(=O)(=O)C(F)(F)CO)c1)CO2 [Compound 130, (S)-1-(3-(1,1-difluoro-2-hydroxyethylsulfonyl)phenoxy)-3-((R)-8-(quinolin-3-ylsulfonyl)-1-oxa-8-azaspiro[4.5]decan-3-ylamino)propan-2-ol]
23.7 nM	COCS(=O)(=O)c1cccc(OC[C@@H](O)CN[C@H]2COC3(CCN(S(=O)(=O)c4ccc5ncccc5c4)CC3)C2)c1 [Compound 131, (S)-1-(3-(methoxymethylsulfonyl)phenoxy)-3-((R)-8-(quinolin-6-ylsulfonyl)-1-oxa-8-azaspiro[4.5]decan-3-ylamino)propan-2-ol]
55.1 nM	O=S(=O)(CCO)c1cccc(OC[C@@H](O)CN[C@H]2COC3(CCN(S(=O)(=O)c4cccc(-c5cccc(F)n5)c4)CC3)C2)c1 [Compound 134, (S)-1-((R)-8-(3-(6-fluoropyridin-2-yl)phenylsulfonyl)-1-oxa-8-azaspiro[4.5]decan-3-ylamino)-3-(3-(2-hydroxyethylsulfonyl)phenoxy)propan-2-ol]
88.8 nM	O=S(=O)(CCCO)c1cccc(OC[C@@H](O)CN[C@H]2COC3(CCN(S(=O)(=O)c4cnc5ccccc5c4)CC3)C2)c1 [Compound 135, 3-(3-((S)-2-hydroxy-3-((R)-8-(quinolin-3-ylsulfonyl)-1-oxa-8-azaspiro[4.5]decan-3-ylamino)propoxy)phenylsulfonyl)propan-1-ol]
20.4 nM	O=S(=O)(c1cccc(OC[C@@H](O)CN[C@H]2COC3(CCN(S(=O)(=O)c4cnc5ccccc5c4)CC3)C2)c1)C1CCC1 [Compound 138, (S)-1-(3-(cyclobutylsulfonyl)phenoxy)-3-((R)-8-(quinolin-3-ylsulfonyl)-1-oxa-8-azaspiro[4.5]decan-3-ylamino)propan-2-ol]
36.2 nM	CCCS(=O)(=O)c1cccc(OC[C@@H](O)CN[C@H]2COC3(CCN(S(=O)(=O)c4cnc5ccccc5c4)CC3)C2)c1 [Compound 139, (S)-1-(3-(propylsulfonyl)phenoxy)-3-((R)-8-(quinolin-3-ylsulfonyl)-1-oxa-8-azaspiro[4.5]decan-3-ylamino)propan-2-ol]
